Source: PMC10786692 (The Journal of Clinical Investigation, 2024)

What was measured:
[1] = test system: tumor biopsies; experiment: RNA-Seq differential gene expression / GSEA of paired tumor biopsies; format: in vivo, human; settings: after 2 weeks of ceralasertib
Experimental: Eight paired tumor biopsies were analyzed from 3 patients with PR, 4 with SD, and 1 NE, treated at various dose levels. Additional baseline samples were also available for 1 PR and 1 SD. When all samples were considered together, there were few differences in differential gene expression between baseline and on-treatment biopsies (Figure 5A). However, when responders (PR) were compared with nonresponders (SD), there were marked differences in both baseline and on-treatment gene expression (Figure 5, B–E) with clustering of a number of differentially expressed genes according to response (Supplemental Figure 8). […]
Formalin fixed paraffin-embedded tumor samples were used. […] H-score was calculated using HALO image analysis (Indica Labs). […] Nuclear ATM (Abcam 32420) IHC staining was carried out on the Ventana autostainer, using DAB detection and assessed by H-score, but samples were only deemed acceptable if lymphocyte staining (internal control) was at least 2+ (moderate) intensity. Cyclin E1 (Invitrogen HE12) staining was carried out on the Ventana autostainer, using DAB detection and the H-score was quantified using HALO image analysis (Indica Labs). Ki67 (Mib-1, Dako M7240) was scored by percent nuclear positivity using a global unweighted method, scoring 4 areas of 100 cells. […] Quantification of tumor-infiltrating lymphocytes was done using a semi-automated method in QuPath (53). […]

[2] = test system: γH2AX; experiment: PBMC γH2AX immunofluorescence (% cells with >5 foci); format: in vivo, human; settings: after treatment at the RP2D, most subjects
Experimental: PD sampling took place at baseline (within 7 days prior to dosing) and between days 15 and 22 of dosing (day 14 for intermittent dosing cohorts). PD samples included PBMCs and tumor biopsies. PBMCs were analyzed by immunofluorescence for γ^(S139)H2AX, p-^(S345)Chk1, and total Chk1, as described in Supplemental Methods. Paired tumor biopsies were formalin fixed and analyzed for nuclear p-^(S635)Rad50 and γH2AX by IHC.
PBMCs were isolated from blood using BD Vacutainer® CPT™ Cell preparation tubes with sodium citrate (BD Biosciences, Wokingham, UK) and fixed with 4% formalin containing 1% Triton™ X-100 (Sigma-Aldrich, St. Louis, MO). […] A Carl Zeiss LSM 700 confocal laser scanning fluorescence microscope (Zeiss, Jena, Germany) was used to visualize and capture images of the PBMCs. Fluorescent nuclear intensity for phospho-(S345) and total Chk1 in individual PBMC cells were quantified using the IN Cell Investigator Developer Toolbox v1.9 software (GE Healthcare Biosciences, Piscataway, NJ). For the phospho(S345)- and total Chk1 assays: the raw data values (fluorescent nuclear intensity for PBMCs), the percentage change for phospho(S345) biomarker was calculated for each subject by comparing the levels measured at each post-dose time point to pre-dose levels measured at baseline. […]
Peripheral blood was drawn into 8 mL EDTA tubes (Vacutainer, BD) and analyzed within 24 hours. […]

[3] = Treatment-related adverse events (CTCAE v4.03), PATRIOT phase I; format: in vivo; settings: for TRAE Overall events: n: Total
Experimental: For part A (dose escalation; Figure 1, A and B), the starting dose of 20 mg was selected based on animal toxicity studies. Dosing was continuous, and escalation used a modified Fibonacci method. Initial dose escalation was planned in single patient cohorts, changing to 3+3 design after the first grade-2 toxicity was seen. […] DLT definitions are in the Supplemental Methods.
For part B, all patients received the RP2D as defined for part A. Part B allowed for different schedules (continuous/intermittent) to be assessed. Initially, a continuous dosing schedule was used for the first 6 patients. […] Pretreatment biopsy was mandatory in part B. DNA-Seq of archival tumor material or review of external tumor sequencing was used to enrich for patients with putative genomic markers of sensitivity to ATRi, based on preclinical data, including oncogene amplification or driver mutation, ATM/G1 pathway defects (alteration in ATM, CHK2, or other components of the pathway causing G1 cell-cycle arrest after DNA damage), SWI/SNF (switch/sucrose nonfermentable, a chromatin-remodeling complex) pathway defect, genomic instability/homologous recombination deficit (HRD), or defect in a gene synthetically lethal with ATRi in published data ([46], [47]) (Figure 1B and Supplemental Table 3).
Patients were assessed weekly during cycle 1 and twice weekly thereafter, with safety assessments including blood hematology and biochemistry, physical examination, and toxicity scoring.

[4] = 160 mg BD intermittent schedule

C[C@@H]1COCCN1c1cc(C2([S@](C)(=N)=O)CC2)nc(-c2cc[nH]c3nccc2-3)n1 [ceralasertib]
Inflammatory response genes (GSEA), on-treatment versus baseline tumor samples [1]: enrichment
γH2AX positivity in PBMCs [2]: Increased
TRAE Overall events: n (%) ([3]; 40 mg BD, G1–2): 7 (100)
TRAE Overall events: n (%) ([3]; 40 mg BD, G3): 0
TRAE Overall events: n ([3]; 40 mg BD): 7
TRAE Overall events: n (%) ([3]; 80 mg BD, G1–2): 18 (78)
TRAE Overall events: n (%) ([3]; 80 mg BD, G3): 5 (22)
TRAE Overall events: n ([3]; 80 mg BD): 23
Tolerability of intermittent versus continuous schedule ([3]; 160 mg BD): better tolerated
Incidence of G3 leukopenia ([3]; 160 mg BD continuous schedule): 8%
Incidence of G3 or greater anemia ([3]; 160 mg BD continuous schedule): 33%
TRAE Overall events: n (%) ([3]; 160 mg BD continuous, G1–2): 44 (90)
TRAE Overall events: n (%) ([3]; 160 mg BD continuous, G3): 5 (10)
TRAE Overall events: n ([3]; 160 mg BD continuous): 49
Incidence of G3 leukopenia [3, 4]: 0%
Incidence of G3 or greater anemia [3, 4]: 9%
TRAE Overall events: n (%) ([3]; 160 mg BD intermittent, G1–2): 100 (89)
TRAE Overall events: n (%) ([3]; 160 mg BD intermittent, G3): 11 (10)
TRAE Overall events: n (%) ([3]; 160 mg BD intermittent, G4): 1 (1)
TRAE Overall events: n ([3]; 160 mg BD intermittent): 112
TRAE Overall events: n (%) ([3]; 240 mg BD, G1–2): 26 (77)
TRAE Overall events: n (%) ([3]; 240 mg BD, G3): 8 (24)
TRAE Overall events: n (%) ([3]; 240 mg BD, G4): 7 (21)
Related SAE ([3]; 20 and 40 mg dose levels): N o related SAE
Treatment-related deaths ([3]; all 67 treated patients): no treatment-related deaths
Patients requiring dose reduction or interruption for toxicity ([3]; continuous schedule (incl. part A), 6 of 12): 50%
Patients withdrawn due to toxicity ([3]; dose-escalation phase): Four
Patients withdrawn due to toxicity ([3]; dose-expansion phase): 1
Patients requiring dose reduction or interruption for toxicity ([3]; intermittent schedule, 10 of 35): 29%
